Test results taken from patent publication US11691962B2 (eXIthera Pharmaceuticals, Inc., priority 2018, dated 2023).

Columns and labels:
Format in all cases: biochemical
Thrombin = Thrombin (Homo sapiens (Human), UniProt P00734); assay: Dose response assay for protease inhibitors: thrombin; conditions: selectivity, thrombin over Factor XIa
Protocol: (§1) • Assay buffer: 20 mM Hepes, pH 7.4; 150 mM NaCl; 0.02% Tween 20 • Compounds: 10 mM stocks in DMSO • Substrate: 20 mM Glp-Pro-Arg-AMC, 25 mg/2.3 mL H2O (store at +4° C.) [Factor XIa, thrombin, and trypsin] • 20 mM Pro-Phe-Arg-AMC (Bachem I-1295), 25 mg/2.2 mL H2O • or Boc-Leu-Gly-Arg-AMC (Bachem I-1105), 25 mg/2.07 mL H2O • (store at +4° C.) [Factor Xa] • Enzyme: Factor XIa; 0.25 μM in 50% glycerol (20 μg/mL) • Trypsin; 0.2 μM in 50% glycerol (4.8 μg/mL) • Thrombin; 0.2 μM in 50% glycerol (7.34 μg/mL) • Factor Xa; 0.2 μM in 50% glycerol (9.2 μg/mL) • These stocks are aliquoted (˜100 μL/aliquot) and stored at −20° C. Methods: • 1. Dilute the substrate to 100 μM in assay buffer (30 μL/6 mL). The enzyme is diluted to 0.5 nM just prior to use (12 μL/6 mL for Factor XIa; 15 μL/6 mL for all of the rest.) • 2. Pipette 50 μL of substrate into each well of the 96 well (12×8) microtiter plate. (Column 1 is used as the 100% activity control and receives no compound, and Column 12 is the blank and receives no enzyme.) Add an additional 46 μL to column 2. • 3. Pipette 4 μL of each compound into the appropriate well in column 2 of the plate (unknowns assayed in triplicate, standard assayed in duplicate). The final compound concentration will be […] of the stock. • 4. Serially two-fold dilute the compound by mixing the sample in column 2, removing 50 μL to the next well (column 3), mix and remove to column 4, etc. until column 11. After mixing column 11, remove 50 μL and discard. • 5. Pipette 50 μL of buffer into column 12. Initiate the reaction by adding 50 μL of enzyme solution to each well of columns 1-11 as rapidly as possible. • 6. Read the plate in a spectrophotometer (SpectraMax) at 30° C., wherein each well is measured every 60 s for 30 min. For Factor Xa assays, each well is measured every 1 min for a total of 60 min. • 7. For Factor XIa assays, the compounds are assayed, in duplicate, at 3 different starting concentrations, 20, 2, and 0.2 μM; 1:10, 1:100, and 1:1000 dilution of 10 mM stock or at 2, 0.2, and 0.02 μM; 1:100, 1:1000, and 1:10,000 dilution of 10 mM stock. Data for each concentration are combined for graphing and data fitting. • 8. Data can be used both for estimation of IC50 and for estimation of Kon.

Trypsin = assay: Dose response assay for protease inhibitors: trypsin; conditions: selectivity, trypsin over Factor XIa
Protocol: as §1

Factor Xa = Factor Xa (Homo sapiens (Human), UniProt P00742); assay: Dose response assay for protease inhibitors: Factor Xa; conditions: selectivity, Factor Xa over Factor XIa
Protocol: as §1

Factor XIa = Factor XIa (Homo sapiens (Human), UniProt P03951); assay: Factor XIa enzyme inhibition assay (dose response, fluorogenic AMC substrate); conditions: read-out: hFXIa IC50
In short: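 Human FXIa at 0.25 nM final with 50 μM final PyroGlu-Pro-Arg-AMC in 20 mM Hepes pH 7.4, 150 mM NaCl, 0.02% Tween 20. Two-fold serial compound dilutions; fluorescence read every minute for 30 min at 30° C. IC50 from a four-parameter Hill fit.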

Chain of Factor Xa (P00742 235-488): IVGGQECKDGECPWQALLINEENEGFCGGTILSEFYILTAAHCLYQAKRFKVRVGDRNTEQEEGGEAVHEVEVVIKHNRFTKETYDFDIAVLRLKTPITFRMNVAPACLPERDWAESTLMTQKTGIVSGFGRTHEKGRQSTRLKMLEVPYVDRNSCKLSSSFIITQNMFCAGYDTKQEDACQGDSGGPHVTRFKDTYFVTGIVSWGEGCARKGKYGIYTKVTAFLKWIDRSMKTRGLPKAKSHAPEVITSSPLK
Chain of Factor Xa (P00742 41-179 partner): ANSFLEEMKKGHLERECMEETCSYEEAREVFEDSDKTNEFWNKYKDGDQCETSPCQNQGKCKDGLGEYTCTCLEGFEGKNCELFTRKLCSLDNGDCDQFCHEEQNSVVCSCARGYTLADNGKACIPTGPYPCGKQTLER
Chain of Factor XIa (P03951 388-625): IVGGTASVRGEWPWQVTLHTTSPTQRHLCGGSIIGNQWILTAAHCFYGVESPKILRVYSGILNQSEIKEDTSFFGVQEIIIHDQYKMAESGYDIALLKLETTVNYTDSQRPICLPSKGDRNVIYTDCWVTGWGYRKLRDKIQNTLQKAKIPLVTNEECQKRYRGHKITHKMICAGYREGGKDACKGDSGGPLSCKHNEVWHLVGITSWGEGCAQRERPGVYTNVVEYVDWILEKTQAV
Chain of Factor XIa (P03951 19-387 partner): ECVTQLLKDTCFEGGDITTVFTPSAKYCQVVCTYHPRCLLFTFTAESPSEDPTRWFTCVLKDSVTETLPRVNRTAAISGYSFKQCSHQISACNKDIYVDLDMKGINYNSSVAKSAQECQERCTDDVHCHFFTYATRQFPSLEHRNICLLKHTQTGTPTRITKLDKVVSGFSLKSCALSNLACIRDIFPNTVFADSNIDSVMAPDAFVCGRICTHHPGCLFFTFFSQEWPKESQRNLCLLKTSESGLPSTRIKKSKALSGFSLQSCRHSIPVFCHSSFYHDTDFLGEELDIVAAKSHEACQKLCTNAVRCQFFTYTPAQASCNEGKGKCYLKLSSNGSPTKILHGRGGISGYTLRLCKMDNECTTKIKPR

Structure (SMILES) | Ratio: Thrombin/FXIa (Thrombin) | Ratio: Trypsin/FXIa (Trypsin) | Ratio: FXa/FXIa (Factor Xa) | IC50 (Factor XIa) [nM]
CC[C@@H](NC(=O)N1C(=O)[C@H](Cc2ccnc(NC)c2)[C@H]1C(=O)N(C)c1cccs1)c1cccc(Cl)c1 [Compound 1-44, (2S,3R)-3-((2-methylaminopyridin-4-yl)methyl)-N2-(thiophen-2-yl)-N1-((R)-1-(3-chlorophenyl)propyl)-N2-methyl-4-oxoazetidine-1,2-dicarboxamide] | H (“H” indicates 101-1000) | G (“G” indicates 1-100) | H (“H” indicates 101-1000) | < 10
CC[C@@H](NC(=O)N1C(=O)[C@H](Cc2cc(C)nc(N)c2)[C@H]1C(=O)N(C)c1cnn(C)c1)c1cc(C)cc(F)c1 [Compound 1-184, (2S,3R)-3-((2-amino-6-methylpyridin-4-yl)methyl)-N2-(1-methyl-1H-pyrazol-4-yl)-N1-((R)-1-(3-fluoro-5-methylphenyl)propyl)-N2-methyl-4-oxoazetidine-1,2-dicarboxamide] | H (“H” indicates 101-1000) | G (“G” indicates 1-100) | I (“I” indicates > 500) | < 10
CN(C(=O)[C@@H]1[C@@H](Cc2ccnc(N)c2)C(=O)N1C(=O)NC(C1CCCCC1)C(F)(F)F)c1nccn1C (stereo in doubt) [Compound 1-56, (2S,3R)-3-((2-aminopyridin-4-yl)methyl)-N2-(1-methyl-1H-imidazol-2-yl)-N1-((R)-1-cyclohexyl-2,2,2-trifluoroethyl)-N2-methyl-4-oxoazetidine-1,2-dicarboxamide] | H (“H” indicates 101-1000) | G (“G” indicates 1-100) | I (“I” indicates > 500) | < 10
CC[C@@H](NC(=O)N1C(=O)[C@H](Cc2ccnc(N)c2)[C@H]1C(=O)N(C)c1nccn1C)c1ccc(OC(F)(F)F)cc1 [Compound 1-97, (2S,3R)-3-((2-aminopyridin-4-yl)methyl)-N2-(1-methyl-1H-imidazol-2-yl)-N1-((R)-1-(4-trifluoromethoxyphenyl)propyl)-N2-methyl-4-oxoazetidine-1,2-dicarboxamide] | H (“H” indicates 101-1000) | G (“G” indicates 1-100) | H (“H” indicates 101-1000) | 10 to 100
CC[C@@H](NC(=O)N1C(=O)[C@H](Cc2ccnc(N)c2)[C@H]1C(=O)N(C)c1cnsc1)c1ccccc1 [Compound 1-19, (2S,3R)-3-((2-aminopyridin-4-yl)methyl)-N2-(4-isothiazolyl)-N1-((R)-1-phenylpropyl)-N2-methyl-4-oxoazetidine-1,2-dicarboxamide] | G (“G” indicates 1-100) | G (“G” indicates 1-100) | H (“H” indicates 101-1000) | < 10
CC[C@@H](NC(=O)N1C(=O)[C@H](Cc2ccnc(NC)c2)[C@H]1C(=O)N(C)c1ccn(C)n1)c1cccc(Cl)c1 [Compound 1-37, (2S,3R)-3-((2-methylaminopyridin-4-yl)methyl)-N2-(1-methyl-1H-pyrazol-3-yl)-N1-((R)-1-(3-chlorophenyl)propyl)-N2-methyl-4-oxoazetidine-1,2-dicarboxamide] | H (“H” indicates 101-1000) | G (“G” indicates 1-100) | H (“H” indicates 101-1000) | 10 to 100
CC[C@@H](NC(=O)N1C(=O)[C@H](Cc2cc(C)nc(N)c2)[C@H]1C(=O)N(C)c1cn(C)cn1)c1ccccc1 [Compound 1-52, (2S,3R)-3-((2-amino-6-methylpyridin-4-yl)methyl)-N2-(1-methyl-1H-imidazol-4-yl)-N1-((R)-1-phenylpropyl)-N2-methyl-4-oxoazetidine-1,2-dicarboxamide] | G (“G” indicates 1-100) | G (“G” indicates 1-100) | H (“H” indicates 101-1000) | 10 to 100
CC[C@@H](NC(=O)N1C(=O)[C@H](Cc2ccnc(N)c2)[C@H]1C(=O)N(C)c1cncs1)c1ccccc1 [Compound 1-12, (2S,3R)-3-((2-aminopyridin-4-yl)methyl)-N2-(5-thiazolyl)-N1-((R)-1-phenylpropyl)-N2-methyl-4-oxoazetidine-1,2-dicarboxamide] | H (“H” indicates 101-1000) | G (“G” indicates 1-100) | H (“H” indicates 101-1000) | < 10
CC[C@@H](NC(=O)N1C(=O)[C@H](Cc2ccnc(N)c2)[C@H]1C(=O)N(C)c1ccn(C)n1)c1cc(F)ccc1F [Compound 1-123, (2S,3R)-3-((2-aminopyridin-4-yl)methyl)-N2-(1-methyl-1H-pyrazol-3-yl)-N1-((R)-1-(2,5-difluorophenyl)propyl)-N2-methyl-4-oxoazetidine-1,2-dicarboxamide] | H (“H” indicates 101-1000) | G (“G” indicates 1-100) | I (“I” indicates > 500) | < 10
CC[C@@H](NC(=O)N1C(=O)[C@H](Cc2cc(C)nc(N)c2)[C@H]1C(=O)N(C)c1ccnn1C)c1cc(F)ccc1C [Compound 1-162, (2S,3R)-3-((2-amino-6-methylpyridin-4-yl)methyl)-N2-(1-methyl-1H-pyrazol-5-yl)-N1-((R)-1-(5-fluoro-2-methylphenyl)propyl)-N2-methyl-4-oxoazetidine-1,2-dicarboxamide] | I (“I” indicates > 500) | G (“G” indicates 1-100) | I (“I” indicates > 500) | < 10
CN(C(=O)[C@@H]1[C@@H](Cc2ccnc(N)c2)C(=O)N1C(=O)N[C@@H](c1ccccc1)C(F)(F)F)c1ccn(C)n1 [Compound 1-31, (2S,3R)-3-((2-aminopyridin-4-yl)methyl)-N2-(1-methyl-1H-pyrazol-3-yl)-N1-((S)-1-phenyl-2,2,2-trifluoroethyl)-N2-methyl-4-oxoazetidine-1,2-dicarboxamide] | G (“G” indicates 1-100) | G (“G” indicates 1-100) | H (“H” indicates 101-1000) | 10 to 100
CC[C@@H](NC(=O)N1C(=O)[C@H](Cc2ccnc(N)c2)[C@H]1C(=O)N(C)c1nccn1C)c1ccc(C)c(C)c1 [Compound 1-100, (2S,3R)-3-((2-aminopyridin-4-yl)methyl)-N2-(1-methyl-1H-imidazol-2-yl)-N1-((R)-1-(3,4-dimethylphenyl)propyl)-N2-methyl-4-oxoazetidine-1,2-dicarboxamide] | H (“H” indicates 101-1000) | G (“G” indicates 1-100) | H (“H” indicates 101-1000) | < 10
CC[C@@H](NC(=O)N1C(=O)[C@H](Cc2cc(C)nc(N)c2)[C@H]1C(=O)N(C)c1ccn(C)n1)c1cc(C)ccc1F [Compound 1-143, (2S,3R)-3-((2-amino-6-methylpyridin-4-yl)methyl)-N2 (1-methyl-1H-pyrazol-3-yl)-N1-((R)-1-(2-fluoro-5-methylphenyl)propyl)-N2-methyl-4-oxoazetidine-1,2-dicarboxamide] | H (“H” indicates 101-1000) | G (“G” indicates 1-100) | I (“I” indicates > 500) | < 10
CC[C@@H](NC(=O)N1C(=O)[C@H](Cc2cc(C)nc(N)c2)[C@H]1C(=O)N(C)c1nccn1C)c1ccc(C)c(Cl)c1 [Compound 1-113, (2S,3R)-3-((2-amino-6-methylpyridin-4-yl)methyl)-N2-(1-methyl-1H-imidazol-2-yl)-N1-((R)-1-(3-chloro-4-methylphenyl)propyl)-N2-methyl-4-oxoazetidine-1,2-dicarboxamide] | H (“H” indicates 101-1000) | G (“G” indicates 1-100) | H (“H” indicates 101-1000) | < 10
